Measurements published in US20240425464A1, “Substituted Monohydrazides as Potent Antifungal Agents” (University of Kentucky Research Foundation, priority 2023, published 2024).
In brackets after ≈: the same amount, converted by molar mass. Like-named read-outs stand apart in the source and are kept apart here.

Assays:
Type in all cases: cell-based, Candida auris
C. auris AR Bank #389 = assay: MIC determination by in vitro antifungal assay; conditions: C. auris AR Bank # 389 (Table 2B)
Method: (§1) The antifungal agent amphotericin B (AmB) was purchased from VWR (Radnor PA, USA). AmB was dissolved in DMSO at a final concentration of 5 mg/mL and was stored at −20° C., protected from light. Candida albicans American Type Culture Collection (ATCC) 10231 (strain A), C. albicans ATCC 64124 (B), and C. albicans ATCC MYA-2876 (C) were obtained from Utah State University. C. albicans ATCC 90819 (D), C. albicans ATCC MYA-2310 (E), C. albicans ATCC MYA-1237 (F), C. albicans ATCC MYA-1003 (G), Candida glabrata ATCC 2001 (H), Candida krusei ATCC 6258 (I), Candida parapsilosis ATCC 22019 (J), Cryptococcus neoformans ATCC MYA-895 (M), Aspergillus terreus ATCC MYA-3633 (N), and Aspergillus flavus ATCC MYA-3631 (0) were obtained from the American Type Culture Collection (ATCC; Manassas, VA, USA). Aspergillus nidulans ATCC 38163 (P) was obtained from University of Kentucky. Clinically derived Aspergillus fumigatus NRRL 163 (Q), A. fumigatus NRRL 5109 (R), and A. fumigatus NRRL 6113 (S) were obtained from Northern Regional Research Laboratory (NRRL). Candida auris 384 (K), C. auris 390 (L), and fungal strains 381-400 (including 10 C. auris (AR Bank #381-390), 3 Candida duobushaemulonii (AR Bank #391, AR Bank #392, and AR Bank #394), 2 Candida haemulonii (AR Bank #393 and AR Bank #395), 1 Kodameae ohmeri (AR Bank #396), 1 C. krusei (AR Bank #397), 1 Candida lusitaniae (AR Bank #398), and 2 Saccharomyces cerevisiae strains (AR Bank #399 and AR Bank #400)) were part of a larger fungal library from the AR Bank maintained by the Centers for Disease Control and Prevention (CDC; Atlanta, GA, USA). Filamentous fungi and yeasts were cultivated at 35° C. in RPMI 1640 medium (with L-glutamine, without sodium bicarbonate, Sigma-Aldrich, St. Louis, MO) buffered to a pH of 7.0 with 0.165 M morpholinepropanesulfonic acid (MOPS) buffer (Sigma-Aldrich). For cytotoxicity assays, HepG2 and the mouse macrophage cell line J774A.1 were obtained from University of Kentucky. The human embryonic kidney cell line, HEK-293, was bought from the ATCC. Mammalian cells were grown in Dulbecco's Modified Eagle's Medium (DMEM) (from VWR) with 10% fetal bovine serum (FBS) (from VWR) and 1% Pen/Strep (from ATCC). Cell lines were cultured at 37° C. with 5% CO2 and passaged by trypsinization with 0.05% trypsin: 0.53 mM EDTA (from Sigma-Aldrich).
(§2) From the actively growing yeast culture, 100 µL were then transferred to 900 μL of RPMI 1640 medium and re-adjusted to achieve OD600 of 0.12 (˜1×10^6 CFU/mL). The cell suspension was further diluted to achieve 1:100 in RPMI 1640 medium.

C. auris AR Bank #385 = assay: MIC determination by in vitro antifungal assay; conditions: C. auris AR Bank # 385 (Table 2B)
Method: as §1, §2

C. auris AR Bank #382 = assay: MIC determination by in vitro antifungal assay; conditions: C. auris AR Bank # 382 (Table 2B)
Method: as §1, §2

C. auris AR Bank #383 = assay: MIC determination by in vitro antifungal assay; conditions: C. auris AR Bank # 383 (Table 2B)
Method: as §1, §2

C. auris AR Bank #387 = assay: MIC determination by in vitro antifungal assay; conditions: C. auris AR Bank # 387 (Table 2B)
Method: as §1, §2

C. auris AR Bank #381 = assay: MIC determination by in vitro antifungal assay; conditions: C. auris AR Bank # 381 (Table 2B)
Method: as §1, §2

C. auris AR Bank #388 = assay: MIC determination by in vitro antifungal assay; conditions: C. auris AR Bank # 388 (Table 2B)
Method: as §1, §2

C. auris AR Bank #386 = assay: MIC determination by in vitro antifungal assay; conditions: C. auris AR Bank # 386 (Table 2B)
Method: as §1, §2

[1] = test system: panel of ten C. auris strains (AR Bank #381-390); assay: MIC determination, summary over the C. auris panel; conditions: Candidozyma auris
Method: as §1, §2

[2] = Candidozyma auris, read-out: MIC
[3] = against all ten C. auris strains tested (AR Bank #381-390)
[4] = all C. auris strains tested with the exception of AR Bank #390

| Structure (SMILES) | MIC (C. auris AR Bank #389) [μg/mL^−1] | MIC (C. auris AR Bank #385) [μg/mL^−1] | MIC (C. auris AR Bank #382) [μg/mL^−1] | MIC (C. auris AR Bank #383) [μg/mL^−1] | MIC (C. auris AR Bank #387) [μg/mL^−1] | MIC (C. auris AR Bank #381) [μg/mL^−1] | MIC (C. auris AR Bank #388) [μg/mL^−1] | MIC (C. auris AR Bank #386) [μg/mL^−1] | MIC (C. auris AR Bank #389; [2]) [µg/mL] | MIC (C. auris AR Bank #385; [2]) [µg/mL] | MIC (C. auris AR Bank #382; [2]) [µg/mL] | MIC (C. auris AR Bank #383; [2]) [µg/mL] | MIC (C. auris AR Bank #387; [2]) [µg/mL] | MIC (C. auris AR Bank #381; [2]) [µg/mL] | MIC (C. auris AR Bank #388; [2]) [µg/mL] | MIC (C. auris AR Bank #386; [2]) [µg/mL] | MIC [1, 3] [µg/mL] | MIC [1, 4] [µg/mL] |
| --- | --- | --- | --- | --- | --- | --- | --- | --- | --- | --- | --- | --- | --- | --- | --- | --- | --- | --- |
| COc1cccc(NNC(=O)c2ccc(F)cn2)c1 [Compound 3c] | 0.98 | 0.49 | 0.49 | 0.98 | 0.98 | 0.98 | 0.98 | 0.98 |  |  |  |  |  |  |  |  |  |  |
| O=C(NNc1cc(Cl)cc(Cl)c1)c1ccc(F)cc1F [Compound 1j] |  |  |  |  |  |  |  |  | > 31.3 | 31.3 (≈ 98.7 µM) | 15.6 (≈ 49.2 µM) | > 31.3 | > 31.3 | > 31.3 | > 31.3 | > 31.3 |  |  |
| O=C(NNc1ccc(F)cc1)c1cccc(F)n1 [Compound 5d] |  |  |  |  |  |  |  |  | 0.98 (≈ 3.93 µM) | 0.49 (≈ 1.97 µM) | 0.98 (≈ 3.93 µM) | 1.95 (≈ 7.82 µM) | 0.49 (≈ 1.97 µM) | 0.98 (≈ 3.93 µM) | 0.49 (≈ 1.97 µM) | 0.98 (≈ 3.93 µM) | 0.06 to 1.95 (≈ 0.241 to 7.82 µM) |  |
| O=C(NNc1ccc(F)cc1)c1ccc(F)cn1 [Compound 3d] | 1.95 | 0.98 | 0.98 | 1.95 | 0.98 | 1.95 | 1.95 | 1.95 |  |  |  |  |  |  |  |  |  |  |
| O=C(NNc1ccc(F)cc1F)c1nc(F)ccc1F [Compound 8g] |  |  |  |  |  |  |  |  | 1.95 (≈ 6.84 µM) | 0.49 (≈ 1.72 µM) | 1.95 (≈ 6.84 µM) | 1.95 (≈ 6.84 µM) | 0.98 (≈ 3.44 µM) | 1.95 (≈ 6.84 µM) | 0.98 (≈ 3.44 µM) | 1.95 (≈ 6.84 µM) |  | 0.49 to 1.95 (≈ 1.72 to 6.84 µM) |
| O=C(NNc1ccc(F)cc1)c1ccc(Br)cn1 [Compound 4d] |  |  |  |  |  |  |  |  | 3.9 (≈ 12.6 µM) | 1.95 (≈ 6.29 µM) | 1.95 (≈ 6.29 µM) | 7.8 (≈ 25.2 µM) | 3.9 (≈ 12.6 µM) | 1.95 (≈ 6.29 µM) | 1.95 (≈ 6.29 µM) | 3.9 (≈ 12.6 µM) | 0.12 to 7.8 (≈ 0.387 to 25.2 µM) |  |
| COc1ccc(NNC(=O)c2nc(F)ccc2F)cc1 [Compound 8f] |  |  |  |  |  |  |  |  | 0.98 (≈ 3.51 µM) | 0.49 (≈ 1.75 µM) | 0.98 (≈ 3.51 µM) | 1.95 (≈ 6.98 µM) | 0.98 (≈ 3.51 µM) | 0.98 (≈ 3.51 µM) | 0.98 (≈ 3.51 µM) | 0.98 (≈ 3.51 µM) |  | 0.49 to 1.95 (≈ 1.75 to 6.98 µM) |
| O=C(NNc1ccc(F)cc1)c1ncc(F)cc1F [Compound 7d] |  |  |  |  |  |  |  |  | 1.95 (≈ 7.3 µM) | 0.49 (≈ 1.83 µM) | 0.98 (≈ 3.67 µM) | 1.95 (≈ 7.3 µM) | 0.49 (≈ 1.83 µM) | 1.95 (≈ 7.3 µM) | 0.49 (≈ 1.83 µM) | 0.98 (≈ 3.67 µM) | 0.12 to 7.8 (≈ 0.449 to 29.2 µM) |  |
| COc1ccc(NNC(=O)c2ncc(F)cc2F)cc1 [Compound 7f] |  |  |  |  |  |  |  |  | 0.98 (≈ 3.51 µM) | 0.49 (≈ 1.75 µM) | 0.98 (≈ 3.51 µM) | 0.98 (≈ 3.51 µM) | 0.98 (≈ 3.51 µM) | 0.98 (≈ 3.51 µM) | 0.98 (≈ 3.51 µM) | 0.98 (≈ 3.51 µM) |  | 0.49 to 1.95 (≈ 1.75 to 6.98 µM) |
| O=C(NNc1ccc(F)cc1F)c1ccc(F)cn1 [Compound 3g] |  |  |  |  |  |  |  |  | 1.95 (≈ 7.3 µM) | 0.49 (≈ 1.83 µM) | 1.95 (≈ 7.3 µM) | 1.95 (≈ 7.3 µM) | 0.98 (≈ 3.67 µM) | 1.95 (≈ 7.3 µM) | 1.95 (≈ 7.3 µM) | 1.95 (≈ 7.3 µM) | 0.12 to 7.8 (≈ 0.449 to 29.2 µM) |  |
